From US4044151A, “Sulfamidophenethanolamine therapeutic process” (Mead Johnson & Company, priority 1975, dated 1977)

What was measured:
[1] = test system: beta-adrenergic receptors; assay: beta-adrenergic blocking action and its selectivity (cardiac, vascular smooth muscle, metabolic effects); format: in vivo; conditions: for relative specificity of beta-adrenergic antagonism, peripheral vasculature versus heart: effects of beta-adrenergic agonists; for level of activity: in vivo

| Compound | anti-arrhythmic activity (anti-arrhythmic activity) | anti-arrhythmic potency relative to procainamide (anti-arrhythmic activity; versus procainamide) | anti-arrhythmic potency relative to quinidine (anti-arrhythmic activity; versus quinidine) | relative specificity of beta-adrenergic antagonism, peripheral vasculature versus heart [1] | level of activity [1] | selectivity of beta-adrenergic blocking action, cardiac and smooth muscle versus metabolic effects ([1]; versus anti-hyperglycemia and anti-hyperlactacidemia) |
| --- | --- | --- | --- | --- | --- | --- |
| CC(C)NCC(O)c1ccc(NS(=O)(=O)N(C)C)cc1 (centres unmarked) [N,N-dimethyl-N'-[4-(1-hydroxy-2-isopropylaminoethyl)phenyl]sulfamide] | potent anti-arrhythmic agent | 2.6 times | 1.3 times | relative specificity for antagonism of the effects of beta-adrenergic agonists on the peripheral vasculature | high level of activity | relatively selective for cardiac and smooth muscle as opposed to the metabolic effects of anti-hyperglycemia and anti-hyperlactacidemia |
| CC(C)NCC(O)c1ccc(NS(N)(=O)=O)cc1 (centres unmarked) [N-[4-(1-hydroxy-2-isopropylaminoethyl)phenyl]sulfamide] | – | – | – | relatively stronger antagonist of the direct cardiac stimulatory effects evoked by beta-adrenergic agonists than of the peripheral vascular smooth muscle | high level of activity | – |
